How the values were obtained:
[1] = system: apparently healthy men (US male physicians); experiment: Physicians' Health Study: randomized, double-blind, placebo controlled trial of aspirin in primary prevention; risk of first myocardial infarction, stratified by baseline C-reactive protein quartile; type: in vivo, human; conditions: 325 mg aspirin on alternate days vs placebo, events prior to Jan. 25, 1988
Procedure: The Physicians' Health Study is a randomized, double-blind, placebo controlled, 2×2 factorial trial of aspirin and beta-carotene in the primary prevention of cardiovascular disease and cancer. A total of 22,071 US male physicians aged 40 to 84 years in 1982 with no history of myocardial infarction, stroke, transient ischemic attack, or cancer were assigned to one of four treatment groups: 325 mg aspirin on alternate days (Bufferin, provided by Bristol-Myers), 50 mg of beta-carotene on alternate days (Lurotin, provided by BASF Corporation), both, or neither. The aspirin component of the PHS was terminated early on Jan. 25, 1988 primarily due to a statistically extreme 44 percent reduction in risk of first infarction in the aspirin group.^1 The beta-carotene component continued to scheduled termination on Dec. 31, 1995.^2 Hospital records (and for fatal events, death certificates and necropsy reports) were requested for all reported cases of myocardial infarction, stroke, and venous thrombosis. Records were reviewed by a committee of physicians using standardized criteria to confirm or refute reported events. Endpoints reviewers were blinded to treatment assignment. Reported myocardial infarction was confirmed if the event met World Health Organization criteria of symptoms plus either elevated enzymes or characteristic electrocardiographic changes. Silent myocardial infarctions were not included since they could not be dated accurately. Deaths due to coronary disease were confirmed based on autopsy reports, symptoms, circumstances of death, and prior history of coronary disease. Reported stroke was confirmed based on medical records showing neurological deficit of sudden or rapid onset persisting for more than 24 hours or until death. Strokes were classified as ischemic or hemorrhagic. Computed tomography was available for more than 95 percent of confirmed strokes. Reported deep venous thrombosis was confirmed by documentation of a positive venography study or a positive ultrasound study; deep venous thrombosis documented only by impedance plethysmography or Doppler examination without ultrasound were not confirmed. […] Using these methods, we evaluated 543 cases and 543 controls in this prospective nested case-control design. Means or proportions for baseline risk factors were calculated for cases and controls. […] Because C-reactive protein levels are skewed, median levels were computed and the significance of any differences in median values between cases and controls assessed using Wilcoxon's Rank Sum Test. […] Similar models were employed to adjust for measured baseline levels of total and HDL cholesterol, triglyceride, lipoprotein(a), tPA antigen, fibrinogen, D-dimer, and homocysteine. […]

[2] = system: apparently healthy men (US male physicians); conditions: whole trial population, 325 mg aspirin on alternate days vs placebo (reference 1); cited from earlier work

**Q.** For `CC(=O)Oc1ccccc1C(=O)O` [aspirin], which “reduction in risk of myocardial infarction associated with aspirin use” value (“reduction in risk … with aspirin use” for short) ([1]; first (lowest) quartile of baseline C-reactive protein) is on record?
**A.** 13.9%

**Q.** What about the “reduction in risk … with aspirin use” value ([1]; fourth (highest) quartile of baseline C-reactive protein) of the same compound?
**A.** 55.7%

**Q.** What about the “reduction in risk … with aspirin use” value ([1]; second quartile of baseline C-reactive protein) of the same compound?
**A.** 33.4%

**Q.** What about the “reduction in risk … with aspirin use” value ([1]; third quartile of baseline C-reactive protein) of the same compound?
**A.** 46.3%

**Q.** And the “reduction in risk of first infarction in the aspirin group” value [2]?
**A.** 44%

Reference: patent US7964614B2, “Systemic inflammatory markers as diagnostic tools in the prevention of atherosclerotic diseases and as tools to aid in the selection of agents to be used for the prevention and treatment of atherosclerotic disease” (The Brigham and Women's Hospital, Inc., priority 1997, dated 2011)
